In assay [1] the target is T1, Polyunsaturated fatty acid 5-lipoxygenase (Homo sapiens, UniProt P09917).
T1 sequence (P09917 whole entry): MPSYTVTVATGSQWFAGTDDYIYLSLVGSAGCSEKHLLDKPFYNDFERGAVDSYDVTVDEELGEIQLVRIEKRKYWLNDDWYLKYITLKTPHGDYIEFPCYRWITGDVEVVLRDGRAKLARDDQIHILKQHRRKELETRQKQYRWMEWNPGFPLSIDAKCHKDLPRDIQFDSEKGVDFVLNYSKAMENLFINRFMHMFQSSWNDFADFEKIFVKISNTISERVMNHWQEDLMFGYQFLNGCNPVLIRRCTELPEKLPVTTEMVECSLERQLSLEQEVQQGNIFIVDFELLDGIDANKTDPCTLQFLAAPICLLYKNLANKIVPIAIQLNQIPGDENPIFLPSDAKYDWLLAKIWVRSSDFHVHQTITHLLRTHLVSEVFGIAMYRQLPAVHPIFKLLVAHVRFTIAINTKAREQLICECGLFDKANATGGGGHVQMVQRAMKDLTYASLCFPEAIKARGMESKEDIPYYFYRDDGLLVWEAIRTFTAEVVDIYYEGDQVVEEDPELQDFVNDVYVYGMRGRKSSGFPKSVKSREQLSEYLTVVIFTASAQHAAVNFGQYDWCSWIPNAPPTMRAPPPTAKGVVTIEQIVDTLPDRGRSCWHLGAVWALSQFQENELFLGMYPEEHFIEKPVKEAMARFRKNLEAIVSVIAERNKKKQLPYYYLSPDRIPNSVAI
The assay is described as follows: Inhibition of 5-LOX in human PMNL cells. It is filed as cell-based.

The target in assay [2] is T1, Polyunsaturated fatty acid 5-lipoxygenase. Kind of assay: Inhibition of recombinant human 5-lipoxygenase expressed in Escherichia coli BL21 using arachidonic acid as substrate preincubated for 5 to 10 mins with compound followed by substrate addition and measured after 10 mins by HPLC analysis.
Assay [3] shares this target. The assay is described as follows: Inhibition of 5-lipoxygenase in human PMNL cells using arachidonic acid as substrate preincubated with compound for 15 mins followed by A23187 and substrate addition and measured after 10 mins by HPLC analysis. It is filed as cell-based.
Assay [4] addresses T2, Polyunsaturated fatty acid lipoxygenase ALOX12 (Homo sapiens) (UniProt P18054).
T2 sequence (whole entry): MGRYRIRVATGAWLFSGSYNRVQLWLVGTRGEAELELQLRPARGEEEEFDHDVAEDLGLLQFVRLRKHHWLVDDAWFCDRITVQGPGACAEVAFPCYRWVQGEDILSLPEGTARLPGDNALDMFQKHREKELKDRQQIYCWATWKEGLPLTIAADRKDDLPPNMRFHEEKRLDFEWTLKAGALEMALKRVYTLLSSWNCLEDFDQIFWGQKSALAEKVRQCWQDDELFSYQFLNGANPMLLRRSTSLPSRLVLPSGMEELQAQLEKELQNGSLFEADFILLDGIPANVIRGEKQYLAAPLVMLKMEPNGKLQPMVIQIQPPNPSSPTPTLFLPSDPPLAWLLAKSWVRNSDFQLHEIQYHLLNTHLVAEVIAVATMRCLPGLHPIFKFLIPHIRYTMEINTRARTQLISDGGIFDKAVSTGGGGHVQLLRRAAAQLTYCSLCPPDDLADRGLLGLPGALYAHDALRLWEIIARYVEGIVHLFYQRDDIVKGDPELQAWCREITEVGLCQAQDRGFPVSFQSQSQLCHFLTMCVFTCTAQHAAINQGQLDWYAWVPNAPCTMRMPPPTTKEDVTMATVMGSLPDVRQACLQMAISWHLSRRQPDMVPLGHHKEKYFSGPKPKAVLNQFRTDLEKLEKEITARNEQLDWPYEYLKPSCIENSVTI
The assay is described as follows: Inhibition of 12-lipoxygenase in human PMNL cells using arachidonic acid as substrate assessed as residual activity at 10 uM preincubated with compound for 15 mins followed by A23187 and substrate addition and measured after 10 mins by HPLC analysis relative to control. It is filed as cell-based. As to conditions: time 25.0 min.

Assay [5] has as its target T3, Polyunsaturated fatty acid lipoxygenase ALOX15 (Homo sapiens) (UniProt P16050).
T3 sequence (whole entry): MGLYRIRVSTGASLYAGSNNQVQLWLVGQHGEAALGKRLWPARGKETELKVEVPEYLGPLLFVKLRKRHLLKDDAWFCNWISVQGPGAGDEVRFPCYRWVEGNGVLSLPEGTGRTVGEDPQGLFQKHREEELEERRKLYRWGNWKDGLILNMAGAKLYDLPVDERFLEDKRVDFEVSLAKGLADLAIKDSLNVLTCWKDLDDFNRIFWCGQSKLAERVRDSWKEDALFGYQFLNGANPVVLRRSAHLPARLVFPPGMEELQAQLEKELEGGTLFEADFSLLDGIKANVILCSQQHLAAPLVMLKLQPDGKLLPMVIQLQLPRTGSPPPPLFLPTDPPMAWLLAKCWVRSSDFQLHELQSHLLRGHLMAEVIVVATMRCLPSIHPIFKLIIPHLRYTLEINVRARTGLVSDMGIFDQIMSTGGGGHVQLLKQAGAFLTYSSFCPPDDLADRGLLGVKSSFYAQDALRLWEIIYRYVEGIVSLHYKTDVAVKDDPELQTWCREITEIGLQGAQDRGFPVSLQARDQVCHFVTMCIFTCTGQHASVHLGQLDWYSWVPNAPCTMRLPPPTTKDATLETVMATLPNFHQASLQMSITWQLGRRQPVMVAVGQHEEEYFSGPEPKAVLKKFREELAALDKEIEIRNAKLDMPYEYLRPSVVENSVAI
Kind of assay: Inhibition of 15-lipoxygenase in human PMNL cells using arachidonic acid as substrate assessed as residual activity at 10 uM preincubated with compound for 15 mins followed by A23187 and substrate addition and measured after 10 mins by HPLC analysis relative to control. It is filed as cell-based. Particulars: time 25.0 min.

Assay [6] in a line: Antioxidant activity assessed as DPPH radical scavenging activity by ultraviolet spectrophotometric analysis. It is filed as functional. A general note: DPPH is a stable violet radical that fades when it is reduced.
The nature of assay [7]: Antioxidant activity assessed as quercetin equivalent of Ferric ion TPTZ reducing activity incubated for 6 mins by FRAP assay. It is filed as functional.
Assay [8] addresses T2, Polyunsaturated fatty acid lipoxygenase ALOX12 (Homo sapiens). The assay is described as follows: Inhibition of 12-lipoxygenase in human PMNL cells using arachidonic acid as substrate assessed as residual activity at 1 uM preincubated with compound for 15 mins followed by A23187 and substrate addition and measured after 10 mins by HPLC analysis relative to control. It is filed as cell-based. Particulars: time 25.0 min.

Assay [9] deals with Mus musculus. The assay is described as follows: Antiinflammatory activity in carrageenan induced mouse paw edema model assessed as reduction in hind paw swelling at 0.1 to 10 mg/kg, ip preadministered with compound for 30 mins followed by carrageenan administration and measured upto 72 hrs by hydroplethismometer. It is filed as functional, organism-based. As to conditions: dose 0.1-10 mg/kg, time <= 72.5 hrs. Background: The carrageenan paw model is a standard test of acute inflammation.

Assay [10] deals with Mus musculus. Kind of assay: Antiinflammatory activity against zymosan-induced air pouch mouse model assessed as inhibition of cell migration at 0.1 mg/kg, ip preadministered with compound for 30 mins followed by sterile air injection three days once for 6 days and measured 4 hrs after zymosan administration by optical microscopic analysis. It is filed as functional, organism-based. As to conditions: time 148.5 hrs.

The test system of assay [11] is Mus musculus. Kind of assay: Anti-inflammatory activity against OVA-sensitized isolated perfused lung mouse model assessed as reduction in Ach-induced bronchoconstriction at 0.1 to 1 mg/kg, ip preadministered with compound for 30 mins followed by OVA challenge and measured 24 hrs after last aerosolized OVA challenge. It is filed as functional, organism-based. As to conditions: dose 0.1-1 mg/kg, time 24.5 hrs.

Assay [12] has as its target T3, Polyunsaturated fatty acid lipoxygenase ALOX15 (Homo sapiens). The assay is described as follows: Inhibition of 15-lipoxygenase in human PMNL cells using arachidonic acid as substrate assessed as residual activity at 1 uM preincubated with compound for 15 mins followed by A23187 and substrate addition and measured after 10 mins by HPLC analysis relative to control. Particulars: time 25.0 min. It is filed as cell-based.

The source made the active and inactive calls. No cut-off for these calls is given here.

The record followed here is ChEMBL document CHEMBL5352445, “Design and synthesis of functionalized 4-aryl-Catechol derivatives as new antiinflammtory agents with in vivo efficacy” (Eur J Med Chem, 2022).

A word on the IC50: it is the concentration that inhibits the measured activity by half. In assay [1], `Oc1cc(O)c(O)c(CC2CCC3CCCCC3C2)c1O` (stereo not drawn) returned an IC50 of 4.4 µM.

Usually EC50 stands for the concentration that produces a half-maximal response. On to `CCOc1ccc2ccccc2c1-c1ccc(O)c(O)c1`, for which the figures for the IC50 in [2] and in assay [3] were 0.01 µM and 0.27 µM, respectively. Besides, the results for the Activity in assay [4] and in [5] were 88.8% and 82.8%, respectively. Also, the EC50 in assay [6] is 37 µM; in assay [7], 970 µM.

`Oc1ccc(-c2ccccc2)cc1O`: the figures for the half-maximal inhibitory concentration (IC50) in [2] and in [3] were 0.05 µM and 0.47 µM, respectively. The Activity was determined as 86.1% in assay [4] and 112% in assay [5]. In addition, the concentration for a half-maximal effect (EC50) turned out to be 46 µM in [6] and 190 µM in assay [7].

For `COC1=CC(=O)C(O)=C(C[C@]2(C)CC[C@@]3(C)C(C)=CCC[C@@H]3[C@@H]2C)C1=O`, in assay [1], the IC50 came out at 10 µM.

With `Oc1ccc(-c2ccc(O)c(O)c2)cc1`, the IC50 in assay [2] worked out at 0.21 µM; in assay [3] it was 1.33 µM. Further, the Activity in assay [4] was determined as 75%; in [5], 80.8%. Also, the EC50 amounted to 275 µM in [6] and 650 µM in assay [7].

Regarding `Oc1ccc(-c2ccc3c(c2)OCCO3)cc1O`, the IC50 in assay [2] stood at 0.04 µM; in [3] it was 0.24 µM. Moreover, the values for the Activity in assay [4], in assay [5] and in assay [8] were 89.6%, 84.8% and 74%, respectively. Further, the EC50 in assay [6] is 71 µM; in [7], 70 µM.

For `Oc1ccc(-c2cccc3c2sc2ccccc23)cc1O`, the values for the half-inhibitory concentration (IC50) in [2] and in [3] were 0.007 µM and 0.25 µM, respectively. In addition, the Activity is 71.5% in assay [4] and 70.5% in assay [5]. Besides, the EC50 in assay [6] stood at 82 µM; in assay [7], 1380 µM.

Turning to `Oc1ccc(-c2cccc(Cl)c2)cc1O`, the values for the IC50 in [2] and in assay [3] were 0.02 µM and 0.21 µM, respectively. In addition, the Activity in assay [4] came to 86.6%; in [5], 84.1%. Moreover, the EC50 in assay [6] was 74 µM; in [7] it was 610 µM.

`Oc1ccc(-c2cc3ccccc3o2)cc1O`: the IC50 in assay [2] stood at 0.03 µM; in assay [3], 1.11 µM. In addition, the Activity in assay [4] is 80.6%; in [5] it was 71.1%. Besides, the figures for the EC50 in assay [6] and in assay [7] were 49 µM and 460 µM, respectively.

`CCCCCCCCCCCC1=C(O)C(=O)C=C(O)C1=O` [EMBELIN]: half-maximal inhibition in assay [1] (IC50) required 1.5 µM.

Take `Oc1ccc(-c2cccc3c2oc2ccccc23)cc1O`: the IC50 is 0.076 µM in assay [2] and 0.21 µM in assay [3]. Moreover, the Activity came to 69.5% in assay [4] and 70.3% in [5]. The results for the EC50 in [6] and in assay [7] were 54 µM and 3080 µM, respectively. The outcome in the assay with Mus musculus [9], in the assay with Mus musculus [10] and in the assay on Mus musculus [11] was Active.

On to `Oc1ccc(-c2cccc3c2Sc2ccccc2S3)cc1O`, for which the IC50 turned out to be 0.008 µM in assay [2] and 0.23 µM in assay [3].

Regarding `O=C1C=C(O)C(=O)C(CC2CCC3CCCCC3C2)=C1O` (stereo not drawn), in assay [1], half-maximal inhibition (IC50) required 10 µM.

As for `CCCCCCCCCCCCc1c(O)c(O)cc(OC)c1OC`, 0.03 µM corresponded to half-maximal inhibition in assay [1] (IC50).

Take `Oc1ccc(-c2ccc3ccccc3c2)cc1O`: the IC50 worked out at 0.007 µM in assay [2] and 0.32 µM in [3]. Besides, the Activity was determined as 93.8% in assay [4] and 57.2% in assay [5]. Besides, the EC50 came to 53 µM in assay [6] and 370 µM in assay [7].

Turning to `CC(c1cc2ccccc2s1)N(O)C(N)=O` (stereo not drawn), in the assay on Mus musculus [11], the outcome was Active.

Consider `Oc1ccc(-c2c3ccccc3cc3ccccc23)cc1O`, for which the results for the IC50 in assay [2] and in assay [3] were 0.01 µM and 2.34 µM, respectively. The Activity in assay [4] was 49.4%; in assay [12] it was 114%. For the same compound, the EC50 in [6] is 51 µM; in assay [7], 890 µM.

On to `Oc1ccc(-c2ccc(Cl)cc2)cc1O`, for which the half-maximal inhibitory concentration (IC50) in [2] amounted to 0.02 µM; in assay [3], 0.26 µM. For the same compound, the Activity in assay [4] worked out at 74.9%; in [5] it was 91.4%. Further, the EC50 was 64 µM in [6] and 560 µM in assay [7].
